# Patent US11370786B2, “GLS1 inhibitors for treating disease” (Board of Regents, The University of Texas System, priority 2014, dated 2022)
# How the values were obtained:
# [1] = molecular target: GLS1 (purified recombinant human GAC) (Homo sapiens (Human), UniProt O94925); assay: GLS1 Enzymatic Activity Assay (dual-coupled glutamate oxidase/HRP Amplex UltraRed); type: biochemical
# [2] = system: A549 cells; assay: Proliferation Assay (A549 viability, Cell Titer Fluor, 72 hours); type: cell-based; conditions: Homo sapiens, A549, 72 h
# Procedure: A549 cells were routinely maintained in RPMI 1640 media (Gibco catalog number 11875-093) supplemented with 10% dialyzed fetal bovine serum using a humidified incubator (37° C., 5% CO2 and ambient O2). In preparation for the viability assay, cells were inoculated into 384-well black CulturPlates (Perkin Elmer) at a density of 1000 cells/well in a volume of 40 uL. Following a 24-hour incubation at 37° C., 5% CO2 and ambient O2, cells were treated with compound ([…]) in a final DMSO concentration of 0.5% (v/v). The microplates were then incubated for 72 hours (37° C., 5% CO2 and ambient O2). Cell Titer Fluor (Promega) was subsequently added (10 uL of 6× reagent) and mixed for 15 minutes at room temperature. The plates were then incubated for 30 minutes (37° C., 5% CO2 and ambient O2) and fluorescence was subsequently read on the Perkin Elmer Envision plate reader. IC50 values were calculated using a four-parameter logistic curve fit.
# Sequence of GLS1 (purified recombinant human GAC) (O94925 other isoform, or with tags, fused parts or gaps): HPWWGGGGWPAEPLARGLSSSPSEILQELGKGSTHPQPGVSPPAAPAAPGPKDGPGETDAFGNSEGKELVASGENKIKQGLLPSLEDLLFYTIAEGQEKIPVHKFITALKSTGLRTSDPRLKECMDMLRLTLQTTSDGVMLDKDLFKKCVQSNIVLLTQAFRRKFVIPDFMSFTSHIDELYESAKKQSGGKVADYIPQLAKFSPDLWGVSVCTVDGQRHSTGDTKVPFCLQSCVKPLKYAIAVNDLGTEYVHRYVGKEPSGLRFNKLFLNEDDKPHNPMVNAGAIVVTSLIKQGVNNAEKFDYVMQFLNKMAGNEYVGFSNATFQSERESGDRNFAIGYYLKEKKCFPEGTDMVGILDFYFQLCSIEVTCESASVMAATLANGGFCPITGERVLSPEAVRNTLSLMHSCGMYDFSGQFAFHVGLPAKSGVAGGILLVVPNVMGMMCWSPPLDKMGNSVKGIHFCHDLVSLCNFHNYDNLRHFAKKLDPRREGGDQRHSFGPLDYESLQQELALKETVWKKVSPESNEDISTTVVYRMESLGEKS
IC50 [1],EC50 [2],Compound
< 100 nM,,"CNC(=O)c1cn(CCCCc2ccc(NC(=O)Cc3cncc(Br)c3)nn2)nn1 [Example 546, 1-(4-{6-[2-(5-bromopyridin-3-yl)acetamido]pyridazin-3-yl}butyl)-N-methyl-1H-1,2,3-triazole-4-carboxamide]"
< 100 nM,,"CNC(=O)c1cn(CC(F)CCc2ccc(NC(=O)Cc3cc(OC(C)C(F)(F)F)ccn3)nn2)nn1 (stereo not shown) [Example 266, 1-(2-fluoro-4-(6-(2-(4-((1,1,1-trifluoropropan-2-yl)oxy)pyridin-2-yl)acetamido)pyridazin-3-yl)butyl)-N-methyl-1H-1,2,3-triazole-4-carboxamide]"
,< 100 nM,"O=C(NCc1cccc(OC(F)(F)F)c1)c1cn(CCCCn2cc(C(=O)NCc3ccc(C(F)(F)F)cn3)nn2)nn1 [Example 81, 1-{4-[4-({[3-(trifluoromethoxy)phenyl]methyl}carbamoyl)-1H-1,2,3-triazol-1-yl]butyl}-N-{[5-(trifluoromethyl)pyridin-2-yl]methyl}-1H-1,2,3-triazole-4-carboxamide]"
< 100 nM,,"CNC(=O)c1cn(CCCCc2ccc(NC(=O)Cc3cc(-c4cc(F)ccc4C)ccn3)nn2)nn1 [Example 609, 1-(4-(6-(2-(4-(5-fluoro-2-methylphenyl)pyridin-2-yl)acetamido)pyridazin-3-yl)butyl)-N-methyl-1H-1,2,3-triazole-4-carboxamide]"
< 100 nM,,"CNC(=O)c1cn(CCCCc2ccc(NC(=O)Cc3cc(Cl)ccn3)nn2)nn1 [Example 191, 1-(4-{6-[2-(4-chloropyridin-2-yl)acetamido]pyridazin-3-yl}butyl)-N-methyl-1H-1,2,3-triazole-4-carboxamide]"
< 100 nM,,"O=C(Cc1ccccn1)Nc1ccc(CCCCn2cc(C(=O)NCc3cc(C(F)(F)F)ccn3)nn2)nn1 [Example 203, 1-(4-(6-(2-(pyridin-2-yl)acetamido)pyridazin-3-yl)butyl)-N-((4-(trifluoromethyl)pyridin-2-yl)methyl)-1H-1,2,3-triazole-4-carboxamide]"
< 100 nM,,"CNC(=O)c1cn(CCCCc2ccc(NC(=O)Cc3cc(-c4cccc(OC(F)(F)F)c4F)ccn3)nn2)nn1 [Example 607, 1-(4-(6-(2-(4-(2-fluoro-3-(trifluoromethoxy)phenyl)pyridin-2-yl)acetamido)pyridazin-3-yl)butyl)-N-methyl-1H-1,2,3-triazole-4-carboxamide]"
< 100 nM,,"CNC(=O)c1cn(CCCCc2ccc(NC(=O)Cc3cc(-c4ccc(F)cc4C(F)(F)F)ccn3)nn2)nn1 [Example 606, 1-(4-(6-(2-(4-(4-fluoro-2-(trifluoromethyl)phenyl)pyridin-2-yl)acetamido)pyridazin-3-yl)butyl)-N-methyl-1H-1,2,3-triazole-4-carboxamide]"
< 100 nM,,"CNC(=O)c1cn(CCCCc2ccc(NC(=O)Cc3cc(-c4cccc(Cl)c4OC(F)(F)F)ccn3)nn2)nn1 [Example 608, 1-(4-(6-(2-(4-(3-chloro-2-(trifluoromethoxy)phenyl)pyridin-2-yl)acetamido)pyridazin-3-yl)butyl)-N-methyl-1H-1,2,3-triazole-4-carboxamide]"
< 100 nM,,"CNC(=O)c1cn(CCCCc2ccc(NC(=O)Cc3ccc(Cl)nc3)nn2)nn1 [Example 544, 1-(4-{6-[2-(6-chloropyridin-3-yl)acetamido]pyridazin-3-yl}butyl)-N-methyl-1H-1,2,3-triazole-4-carboxamide]"
< 100 nM,,"CNC(=O)c1cn(CCCCc2ccc(NC(=O)Cc3cc(C4CC4)ccn3)nn2)nn1 [Example 190, 1-(4-{6-[2-(4-cyclopropylpyridin-2-yl)acetamido]pyridazin-3-yl}butyl)-N-methyl-1H-1,2,3-triazole-4-carboxamide]"
< 100 nM,,"CNC(=O)c1cn(CCCCc2ccc(NC(=O)Cc3cc(Br)ccn3)nn2)nn1 [Example 200, 1-(4-(6-(2-(4-bromopyridin-2-yl)acetamido)pyridazin-3-yl)butyl)-N-methyl-1H-1,2,3-triazole-4-carboxamide]"
,< 100 nM,"O=C(NCc1cc(OC(F)(F)F)ccc1F)c1cn(CCC(F)Cn2cc(C(=O)NCc3ccccn3)nn2)nn1 (stereo not shown) [Example 369, 1-{2-fluoro-4-[4-({[2-fluoro-5-(trifluoromethoxy)phenyl]methyl}carbamoyl)-1H-1,2,3-triazol-1-yl]butyl}-N-(pyridin-2-ylmethyl)-1H-1,2,3-triazole-4-carboxamide]"

Compound,IC50 [1],EC50 [2]
"O=C(Cc1cncc(OC2CC(F)(F)C2)c1)Nc1ccc(CCCCn2cc(C(=O)NCc3ccccn3)nn2)nn1 [Example 231, 1-(4-(6-(2-(5-(3,3-difluorocyclobutoxy)pyridin-3-yl)acetamido)pyridazin-3-yl)butyl)-N-(pyridin-2-ylmethyl)-1H-1,2,3-triazole-4-carboxamide]",< 100 nM,
"CNC(=O)c1cn(CCCCc2ccc(NC(=O)Cc3cncc(OC4CC(F)(F)C4)c3)nn2)nn1 [Example 202, 1-(4-(6-(2-(5-(3,3-difluorocyclobutoxy)pyridin-3-yl)acetamido)pyridazin-3-yl)butyl)-N-methyl-1H-1,2,3-triazole-4-carboxamide]",< 100 nM,
"O=C(Cc1cncc(OC2CC(F)(F)C2)c1)Nc1ccc(CCCCn2cc(C(=O)NCc3cc(C(F)(F)F)ccn3)nn2)nn1 [Example 230, 1-(4-(6-(2-(5-(3,3-difluorocyclobutoxy)pyridin-3-yl)acetamido)pyridazin-3-yl)butyl)-N-((4-(trifluoromethyl)pyridin-2-yl)methyl)-1H-1,2,3-triazole-4-carboxamide]",< 100 nM,
